For the experiment, the system named is Mouse-derived B16F10 melanoma cells. The experiment can be described thus: Effect of reducing melanin production in melanocytes (Dooley's method). The class given is cell-based. The conditions noted are these: B16-F10, 120 h, medium with compound replaced for three consecutive days, melanin extracted after 5 days, absorbance at 405 nm, read-out: IC50, concentration required to inhibit melanin production in melanocytes to half. The protocol: The effect of inhibiting melanin production of the benzoic acid amide derivative compounds prepared in Examples in melanocytes was measured according to the Dooley's method. Mouse-derived B16F10 melanoma cells acquired from the Korean Cell Line Bank were used as cell lines. DMEM (Cat No. 11995), FBS (Cat No. 16000-044), and antibiotic-antifungal agents (Cat No. 15240-062) necessary for cell culturing were purchased from Invitrogen (GIBCO). The cell lines were cultured under the condition of 37° C. and 5% CO2. The cultured B16F10 cells were detached using 0.05% trypsin-EDTA and inoculated onto a 48-well plate with the same cell number (1×10^4 cells/well). From the next day, the culture medium was replaced with one containing 10 ppm of each compound of Examples for three consecutive days. […] After 5 days, melanin was melted and extracted from the cells by treating with 1 N NaOH at 60° C. for 2 hours, which was quantitated by measuring absorbance at 405 nm. The concentrations (IC50) of Examples required to inhibit melanin production in melanocytes to half were calculated and are given in the following Table 1.

`COc1cc(OC)c(-c2cc(C)cc(C)c2)cc1C(=O)NCc1ccc(O)cc1O` [Example 8, N-(2,4-dihydroxy-benzyl)-2,4-dimethoxy-5-(3,5-dimethyl-phenyl) Benzoic Acid Amide]: the IC50 was determined as 1500 nM.

`COc1cc(OC)c(-c2ccc(F)cc2)cc1C(=O)NCc1ccc(O)cc1O` [Example 6, N-(2,4-dihydroxy-benzyl)-2,4-dimethoxy-5-(4-fluoro-phenyl)-benzoic Acid Amide]: the IC50 is 700 nM.

In the case of `COc1cc(OC)c(C2CCCCC2)cc1C(=O)NCc1ccc(O)cc1O` [Example 12, 5-cyclohexyl-N-(2,4-dihydroxy-benzyl)-2,4-dimethoxy-benzoic Acid Amide], the IC50 was found to be 2100 nM.

Consider `COc1cc(OC)c(-c2cccc([N+](=O)[O-])c2)cc1C(=O)NCc1ccc(O)cc1O` [Example 10, N-(2,4-dihydroxy-benzyl)-2,4-dimethoxy-5-(3-nitro-phenyl) Benzoic Acid Amide], for which the IC50 came to 1300 nM.

Take `COc1cc(OC)c(C(C)(C)C)cc1C(=O)NCc1ccc(O)cc1O` [Example 1, 5-tert-butyl-N-(2,4-dihydroxy-benzyl)-2,4-dimethoxy-benzoic Acid Amide]: the IC50 amounted to 2300 nM.

For `COc1cc(OC)c(C2=CCCCC2)cc1C(=O)NCc1ccc(O)cc1O` [Example 11, 5-cyclohexene-1-yl-N-(2,4-dihydroxy-benzyl)-2,4-dimethoxy-benzoic Acid Amide], the IC50 came out at 900 nM.

In the case of `COc1cc(OC)c(-c2ccc3c(c2)OCO3)cc1C(=O)NCc1ccc(O)cc1O` [Example 7, 5-benzo[1,3]dioxol-5-yl-N-(2,4-dihydroxy-benzyl)-2,4-dimethoxy-benzoic Acid Amide], the IC50 came to 700 nM.

For `COc1ccc(-c2cc(C(=O)NCc3ccc(O)cc3O)c(OC)cc2OC)cc1` [Example 5, N-(2,4-dihydroxy-benzyl)-2,4-dimethoxy-5-(4-methoxy-phenyl) Benzoic Acid Amide], the IC50 stood at 700 nM.

In the case of `CCCCc1ccc(O)cc1O` [Rucinol, reference compound], the IC50 stood at 800 nM.

On to `COc1cc(OC)c(-c2ccc(F)c(F)c2)cc1C(=O)NCc1ccc(O)cc1O` [Example 9, N-(2,4-dihydroxy-benzyl)-2,4-dimethoxy-5-(3,4-difluoro-phenyl) Benzoic Acid Amide], for which the IC50 amounted to 600 nM.

(Values after patent US10385011B2, “Benzoic acid amide compound” (AMOREPACIFIC CORPORATION, priority 2015, dated 2019).)
